Data taken from publication PMC8473290 (Viruses, 2021).
Peptide text beside a SMILES is read from it.

Tests used:
[1] = tested on: recent cell-associated clinical HCMV isolates; assay: Cell-associated focal spread of recent clinical HCMV isolates in HFF co-culture; assay type: cell-based, Human cytomegalovirus; settings: 60 µmol/L, added 1 d p.i., fixed 7 d p.i.
[2] = tested on: HCMV strain Merlin-pAL1502; assay: Cell-associated focal spread of Merlin-pAL1502 in HFFs; assay type: cell-based, Human cytomegalovirus
TB40-BAC4 = assay: Inhibition of cell-free HCMV infection of HFFs (TB40-BAC4); assay type: cell-based, Human cytomegalovirus
[3] = tested on: Merlin-pAL1502-UL32EGFP-UL100mCherry; assay: Single particle analysis of virion transfer with dual fluorescent Merlin; assay type: cell-based, Human cytomegalovirus; settings: 125 µmol/L, added 1 d p.i.
HSV-2 R6 = assay: Inhibition of cell-free HSV-2 infection of HFFs; assay type: cell-based, herpes simplex virus 2; settings: 1 h preincubation, MOI 1, fixed 6 h p.i.
[4] = tested on: HCMV strain Merlin-pAL1502; assay: Reversibility of inhibition of cell-associated spread after peptide removal; assay type: cell-based, Human cytomegalovirus
HSV-1 R10.2 = assay: Inhibition of cell-free HSV-1 infection of HFFs; assay type: cell-based, herpes simplex virus 1; settings: 1 h preincubation, MOI 1, fixed 6 h p.i.

## CC[C@H](C)[C@H](NC(=O)[C@H](Cc1ccc(O)cc1)NC(=O)[C@@H](NC(=O)[C@H](Cc1c[nH]cn1)NC(=O)[C@H](CCCNC(=N)N)NC(=O)CN)[C@@H](C)CC)C(=O)N[C@@H](Cc1ccc(O)cc1)C(=O)N[C@H](C(=O)N1CCC[C@H]1C(=O)N[C@@H](CC(=O)O)C(=O)N1CCC[C@H]1C(=O)N[C@@H](CC(=O)O)C(=O)N[C@H](C(=O)N[C@@H](C)C(=O)N[C@@H](Cc1ccccc1)C(=O)N[C@H](C(=O)N1CCC[C@H]1C(=O)N[C@@H](CC(C)C)C(=O)NCC(=O)N[C@@H](CCSC)C(=O)N[C@H](C(=O)N[C@@H](CC(=O)O)C(=O)N[C@@H](Cc1ccc(O)cc1)C(=O)N[C@@H](CC(C)C)C(=O)N[C@H](C(=O)N[C@H](C(=O)N[C@H](C(=O)N[C@@H](CCC(=O)O)C(=O)N[C@@H](CC(=O)O)C(=O)N[C@@H](CC(=O)O)C(=O)O)C(C)C)[C@@H](C)CC)C(C)C)[C@@H](C)O)C(C)C)C(C)C)C(C)C [GD30] (H-GRHIYIYVPDPDVAFVPLGMTDYLVIVEDD-OH; N-terminus and C-terminus assumed)
[1]
  Reduction of focal growth compared with GT40: to a similar extent but not more than GT40
[2]; 60 µmol/L, added 1 d p.i., fixed 7 d p.i.
  Reduction of focal growth compared with GT40: to a similar extent but not more than GT40
[2]; 125 µmol/L, applied 42 h p.i., MOI 0.005
  Inhibition of cell-associated spread: almost completely inhibits
TB40-BAC4; 2 h preincubation with virus, MOI 1, fixed next day
  Antiviral effect against cell-free virus: effective against cell-free virus
TB40-BAC4; cell-free virus, 2 h preincubation, MOI 1
  Hill slope of the dose-response curve: −1.67
[3]; MOI 0.05, versus DMSO control, 10 frames
  Reduction of the total number of particles transferred: 78%
[3]; MOI 0.05, untreated control 86%
  Percentage of naked capsids: 7%
HSV-2 R6
  Extent of inhibition of cell-free virus: completely
[4]; 125 µmol/L from 42 h p.i. until fixation at day 8
  Focus size under permanent treatment: almost exclusively single infected cells
[4]; 125 µmol/L from 42 h to 5 d p.i., then 3 d without peptide
  Reversibility of the inhibitory effect after peptide removal: completely reversible
[4]; 125 µmol/L from 42 h to 5 d p.i., withdrawn, fixed 8 d p.i., untreated control up to 50
  Mean focus size after intermittent treatment: around 15 infected cells per focus
HSV-1 R10.2
  Extent of inhibition of cell-free virus: completely
